Test results as given in patent US7919625B2, “4-anilino-3-quinolinecarbonitriles for the treatment of chronic myelogenous leukemia (CML)” (Wyeth LLC, priority 2003, dated 2011).

Legend:
[1] = tested on: Rat 2 cells infected with Abl-murine leukemia virus; assay: Inhibition of v-Abl-dependent proliferation; assay type: cell-based; settings: Rat2
Description: Ultra-low cluster plates (Corning Costar, Acton, Mass.) are seeded with 10,000 cells per well on day 1. Alternatively, Ultra-low cluster plates (Costar 3474) treated with Sigmacote (Sigma, St. Louis, Mo.), rinsed with 70% ethanol, after drying in the hood, are seeded with 5000 cells.
Alternatively relative cell numbers were determined by the CellTiter-Glo™ (Promega) method. All procedures were identical except that cell number was reduced to 1000 cells/well and CellTiter-Glo reagent was added instead of MTS reagent, with luminescence as the readout.
(§1) • A. Inhibition of v-Abl-dependent proliferation. Rat 2 cells infected with Abl-murine leukemia virus were grown and treated as described for the Src cell assay. All measurements were identical except for the cell type that Cell-Titer Glo (Promega) was used to monitor relative cell number. In this case, the reagent was used as recommended by the manufacturer and luminescence was measured on a Wallac Victor plate reader. • B. Inhibition of CML cell proliferation. KU812 and K562 cells were grown in RPMI1640 medium supplemented with 10% fetal calf serum and glutamine with 50 μg/ml gentamicin. Cells were plated at 1000-2000 cells per well on Day 0. On Day 1, compound was added such that the final DMSO concentration was no greater than 0.1%. On Day 4, Cell-Titer Glo was added according to manufacturer specifications and luminescence was determined on a Wallac Victor plate reader.

K562 cells = assay: Inhibition of CML cell proliferation, K562; assay type: cell-based; settings: Homo sapiens
Description: as §1

KU812 cells = assay: Inhibition of CML cell proliferation, KU812; assay type: cell-based; settings: Homo sapiens
Description: as §1

K562 xenografts = K562 xenografts in nude mice, tumor-free survival; assay type: in vivo
Text: Nude mice with K562 xenografts were examined on days 11, 22, 36, and 43. Data is presented as a ratio of animals lacking detectable tumors relative to the number of animals per group. K562 tumors imbedded in Matrigel were staged in nude mice until tumors reached 200-300 mm^3.

Src [2] = molecular target: T1, Src (Homo sapiens, UniProt P12931); assay: Src kinase assay, ELISA format
T1 sequence (P12931 whole entry): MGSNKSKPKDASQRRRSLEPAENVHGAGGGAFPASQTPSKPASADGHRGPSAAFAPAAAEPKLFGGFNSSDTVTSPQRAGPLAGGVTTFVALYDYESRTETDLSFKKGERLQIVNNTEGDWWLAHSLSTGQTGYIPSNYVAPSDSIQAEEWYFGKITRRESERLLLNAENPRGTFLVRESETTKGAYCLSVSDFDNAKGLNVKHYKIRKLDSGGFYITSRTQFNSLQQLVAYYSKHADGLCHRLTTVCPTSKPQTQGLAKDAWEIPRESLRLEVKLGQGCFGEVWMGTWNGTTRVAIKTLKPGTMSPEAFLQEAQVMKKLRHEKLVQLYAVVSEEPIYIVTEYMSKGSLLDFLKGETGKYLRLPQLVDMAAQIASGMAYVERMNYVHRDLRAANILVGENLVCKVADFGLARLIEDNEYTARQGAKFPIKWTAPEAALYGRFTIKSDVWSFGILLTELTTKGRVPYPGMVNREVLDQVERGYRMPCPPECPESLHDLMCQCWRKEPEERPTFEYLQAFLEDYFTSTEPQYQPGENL

c-Abl = molecular target: T2, c-Abl (Homo sapiens, UniProt P00519); assay: Homogeneous solution-based Abl kinase assay (Lance); assay type: biochemical; settings: read-out: c-Abl Enzyme IC50
T2 construct: purchased Panvera P3049
T2 sequence (P00519 whole entry): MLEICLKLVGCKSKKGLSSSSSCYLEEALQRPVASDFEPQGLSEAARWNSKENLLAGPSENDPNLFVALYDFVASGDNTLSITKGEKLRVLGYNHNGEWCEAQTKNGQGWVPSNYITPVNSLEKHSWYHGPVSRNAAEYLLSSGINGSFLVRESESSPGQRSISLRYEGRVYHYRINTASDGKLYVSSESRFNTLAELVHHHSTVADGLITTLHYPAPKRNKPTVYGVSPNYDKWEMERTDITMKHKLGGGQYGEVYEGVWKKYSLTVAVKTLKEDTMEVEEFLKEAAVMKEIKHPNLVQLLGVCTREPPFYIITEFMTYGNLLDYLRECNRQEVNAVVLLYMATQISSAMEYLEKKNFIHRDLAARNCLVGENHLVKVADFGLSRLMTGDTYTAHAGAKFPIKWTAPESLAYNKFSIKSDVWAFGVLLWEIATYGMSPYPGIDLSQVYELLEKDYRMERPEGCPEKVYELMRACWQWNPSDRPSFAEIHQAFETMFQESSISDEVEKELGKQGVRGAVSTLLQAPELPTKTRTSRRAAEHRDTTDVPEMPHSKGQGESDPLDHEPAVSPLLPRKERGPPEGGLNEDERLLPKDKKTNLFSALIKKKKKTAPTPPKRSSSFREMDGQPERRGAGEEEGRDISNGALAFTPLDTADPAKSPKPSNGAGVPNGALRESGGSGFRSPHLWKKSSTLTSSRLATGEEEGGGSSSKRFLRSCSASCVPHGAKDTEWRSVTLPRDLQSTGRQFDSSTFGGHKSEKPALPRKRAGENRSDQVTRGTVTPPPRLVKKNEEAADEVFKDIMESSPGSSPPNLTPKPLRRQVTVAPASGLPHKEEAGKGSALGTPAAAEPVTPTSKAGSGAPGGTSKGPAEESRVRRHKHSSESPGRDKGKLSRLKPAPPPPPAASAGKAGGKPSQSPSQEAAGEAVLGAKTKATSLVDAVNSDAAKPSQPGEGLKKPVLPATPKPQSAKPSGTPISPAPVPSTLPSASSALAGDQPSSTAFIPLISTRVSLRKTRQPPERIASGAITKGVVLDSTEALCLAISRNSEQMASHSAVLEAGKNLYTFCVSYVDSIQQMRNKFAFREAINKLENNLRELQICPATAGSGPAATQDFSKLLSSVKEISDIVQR

Src [3] = molecular target: T1, Src; assay: Src kinase assay, homogeneous solution-based (Lance format); assay type: biochemical; parameters: purchased Upstate Biotechnologies, Lake Placid, N.Y; settings: read-out: Src enzyme IC50
[4] = read-out: Src enzyme IC50, ELISA format

**Q.** What does the source list for `COc1cc(Nc2c(C#N)cnc3cc(OCCCN4CCN(C)CC4)c(OC)cc23)c(Cl)cc1Cl` [Example 1, 4-[(2,4-Dichloro-5-methoxyphenyl)amino]-6-methoxy-7-[3-(4-methyl-1-piperazinyl)propoxy]-3-quinolinecarbonitrile]?
**A.** IC50 [1]: 76 nM; IC50 (K562 cells): 20 nM; IC50 (KU812 cells): 5 nM; Tumor-free survival (animals lacking detectable tumors / animals per group) (K562 xenografts; 50 mg/kg p.o. once a day for 5 days, day 11): 6/8; Tumor-free survival (animals lacking detectable tumors / animals per group) (K562 xenografts; 50 mg/kg p.o. once a day for 5 days, day 22): 5/8; Tumor-free survival (animals lacking detectable tumors / animals per group) (K562 xenografts; 50 mg/kg p.o. once a day for 5 days, day 36): 4/8; Tumor-free survival (animals lacking detectable tumors / animals per group) (K562 xenografts; 50 mg/kg p.o. once a day for 5 days, day 43): 4/8; Tumor-free survival (animals lacking detectable tumors / animals per group) (K562 xenografts; 75 mg/kg p.o. once a day for 5 days, day 11): 7/8; Tumor-free survival (animals lacking detectable tumors / animals per group) (K562 xenografts; 75 mg/kg p.o. once a day for 5 days, day 22): 6/8; Tumor-free survival (animals lacking detectable tumors / animals per group) (K562 xenografts; 75 mg/kg p.o. once a day for 5 days, day 36): 6/8; Tumor-free survival (animals lacking detectable tumors / animals per group) (K562 xenografts; 75 mg/kg p.o. once a day for 5 days, day 43): 6/8; Tumor-free survival (animals lacking detectable tumors / animals per group) (K562 xenografts; 100 mg/kg p.o. once a day for 5 days, day 11): 8/8; Tumor-free survival (animals lacking detectable tumors / animals per group) (K562 xenografts; 100 mg/kg p.o. once a day for 5 days, day 22): 7/8; Tumor-free survival (animals lacking detectable tumors / animals per group) (K562 xenografts; 100 mg/kg p.o. once a day for 5 days, day 36): 7/8; Tumor-free survival (animals lacking detectable tumors / animals per group) (K562 xenografts; 100 mg/kg p.o. once a day for 5 days, day 43): 7/8; Tumor-free survival (animals lacking detectable tumors / animals per group) (K562 xenografts; 150 mg/kg p.o. once a day for 5 days, day 11): 8/8; Tumor-free survival (animals lacking detectable tumors / animals per group) (K562 xenografts; 150 mg/kg p.o. once a day for 5 days, day 22): 8/8; Tumor-free survival (animals lacking detectable tumors / animals per group) (K562 xenografts; 150 mg/kg p.o. once a day for 5 days, day 36): 8/8; Tumor-free survival (animals lacking detectable tumors / animals per group) (K562 xenografts; 150 mg/kg p.o. once a day for 5 days, day 43): 8/8

**Q.** Which IC50 (Src [2]; [4]) does the source give for `CCN1CCN(CCCOc2cc3ncc(C#N)c(Nc4cc(OC)c(Cl)cc4Cl)c3cc2OC)CC1` [Example 2, 4-[(2,4-Dichloro-5-methoxyphenyl)amino]-7-[3-(4-ethyl-1-piperazinyl)propoxy]-6-methoxy-3-quinolinecarbonitrile] here?
**A.** 0.77 nM

**Q.** With `COc1cc(Nc2c(C#N)cnc3cc(OCCN4CCN(C)CC4)c(OC)cc23)c(Cl)cc1Cl` [Example 3, 4-[(2,4-Dichloro-5-methoxyphenyl)amino]-6-methoxy-7-[2-(4-methyl-1-piperazinyl)ethoxy]-3-quinolinecarbonitrile] as the compound, how does the IC50 [1] read?
**A.** 440 nM

**Q.** What about the IC50 (K562 cells) of the same compound?
**A.** 48 nM

**Q.** And the melting point?
**A.** 165 to 167 °C

**Q.** With `CCN1CCN(CCOc2cc3ncc(C#N)c(Nc4cc(OC)c(Cl)cc4Cl)c3cc2OC)CC1` [Example 4, 4-[(2,4-Dichloro-5-methoxyphenyl)amino]-7-[2-(4-ethyl-1-piperazinyl)ethoxy]-6-methoxy-3-quinolinecarbonitrile] as the compound, how does the melting point read?
**A.** 101 to 105 °C

**Q.** For `COc1cc(Nc2c(C#N)cnc3cc(OCC4CCN(C)CC4)c(OC)cc23)c(Cl)cc1Cl` [Example 5, 4-[(2,4-Dichloro-5-methoxyphenyl)amino]-6-methoxy-7-[(1-methylpiperidin-4-yl)methoxy]-3-quinolinecarbonitrile], which IC50 (c-Abl) is on record?
**A.** 2.9 nM

**Q.** What about the IC50 [1] of the same compound?
**A.** 617 nM

**Q.** What about the IC50 (K562 cells) of the same compound?
**A.** 39 nM

**Q.** What about the IC50 (KU812 cells) of the same compound?
**A.** 13.4 nM

**Q.** With `COc1cc(Nc2c(C#N)cnc3cc(OCCC4CCN(C)CC4)c(OC)cc23)c(Cl)cc1Cl` [Example 6, 4-[(2,4-Dichloro-5-methoxyphenyl)amino]-6-methoxy-7-[2-(1-methylpiperidin-4-yl)ethoxy]-3-quinolinecarbonitrile] as the compound, how does the IC50 (c-Abl) read?
**A.** 2.9 nM

**Q.** And the IC50 [1]?
**A.** 458 nM

**Q.** What about the IC50 (K562 cells) of the same compound?
**A.** 41 nM

**Q.** What about the IC50 (KU812 cells) of the same compound?
**A.** 14 nM

**Q.** Which IC50 [1] does the source give for `COc1cc(Nc2c(C#N)cnc3cc(OCCCC4CCN(C)CC4)c(OC)cc23)c(Cl)cc1Cl` [Example 7, 4-[(2,4-Dichloro-5-methoxyphenyl)amino]-6-methoxy-7-[3-(1-methylpiperidin-4-yl)propoxy]quinoline-3-carbonitrile] here?
**A.** 185 nM

**Q.** What about the IC50 (K562 cells) of the same compound?
**A.** 18 nM

**Q.** What about the IC50 (KU812 cells) of the same compound?
**A.** 5.8 nM

**Q.** For `CCN1CCC(COc2cc3ncc(C#N)c(Nc4cc(OC)c(Cl)cc4Cl)c3cc2OC)CC1` [Example 8, 4-[(2,4-Dichloro-5-methoxyphenyl)amino]-7-[(1-ethylpiperidin-4-yl)methoxy]-6-methoxyquinoline-3-carbonitrile], which melting point is on record?
**A.** 192 to 195 °C

**Q.** What does the source list for `CCOc1cc2c(Nc3cc(OC)c(Cl)cc3Cl)c(C#N)cnc2cc1OCCCN1CCN(C)CC1` [Example 9, 4-[(2,4-Dichloro-5-methoxyphenyl)amino]-6-ethoxy-7-[3-(4-methylpiperazin-1-yl)propoxy]quinoline-3-carbonitrile]?
**A.** melting point: 137 to 138 °C; IC50 (Src [2]): 1.2 nM

**Q.** Which melting point does the source give for `CCOc1cc2c(Nc3cc(OC)c(Cl)cc3Cl)c(C#N)cnc2cc1OCC1CCN(C)CC1` [Example 10, 4-[(2,4-Dichloro-5-methoxyphenyl)amino]-6-ethoxy-7-[(1-methylpiperidin-4-yl)methoxy]quinoline-3-carbonitrile] here?
**A.** 182 to 186 °C

**Q.** With `CCOc1cc2c(Nc3cc(OC)c(Cl)cc3Cl)c(C#N)cnc2cc1OCCCN1CCN(CC)CC1` [Example 11, 4-[(2,4-Dichloro-5-methoxyphenyl)amino]-6-ethoxy-7-[3-(4-ethylpiperazin-1-yl)propoxy]quinoline-3-carbonitrile] as the compound, how does the melting point read?
**A.** 127 to 130 °C

**Q.** For `CCOc1cc2c(Nc3cc(OC)c(Cl)cc3Cl)c(C#N)cnc2cc1OCCCC1CCN(C)CC1` [Example 12, 4-[(2,4-Dichloro-5-methoxyphenyl)amino]-6-ethoxy-7-[3-(1-methylpiperidin-4-yl)propoxy]quinoline-3-carbonitrile], which melting point is on record?
**A.** 148 to 151 °C

**Q.** For `CCOc1cc2c(Nc3cc(OC)c(Cl)cc3Cl)c(C#N)cnc2cc1OCCN1CCN(C)CC1` [Example 13, 4-[(2,4-Dichloro-5-methoxyphenyl)amino]-6-ethoxy-7-[2-(4-methyl-1-piperazinyl)ethoxy]quinoline-3-carbonitrile], which melting point is on record?
**A.** 141 to 143 °C

**Q.** With `CCOc1cc2c(Nc3cc(OC)c(Cl)cc3Cl)c(C#N)cnc2cc1OCCC1CCN(C)CC1` [Example 14, 4-[(2,4-Dichloro-5-methoxyphenyl)amino]-6-ethoxy-7-[2-(1-methylpiperidin-4-yl)ethoxy]quinoline-3-carbonitrile] as the compound, how does the melting point read?
**A.** 174 to 176 °C

**Q.** For `CCCN1CCN(CCCOc2cc3ncc(C#N)c(Nc4cc(OC)c(Cl)cc4Cl)c3cc2OC)CC1` [Example 15, 4-[(2,4-Dichloro-5-methoxyphenyl)amino]-6-methoxy-7-[3-(4-propyl-1-piperazinyl)propoxy]-3-quinolinecarbonitrile], which IC50 (Src [2]; [4]) is on record?
**A.** 1.1 nM

**Q.** With `CCOc1cc(Nc2c(C#N)cnc3cc(OCC4CCN(C)CC4)c(OC)cc23)c(Cl)cc1Cl` [Example 22, 4-[(2,4-dichloro-5-ethoxyphenyl)amino]-6-methoxy-7-[(1-methylpiperidin-4-yl)methoxy]quinoline-3-carbonitrile] as the compound, how does the IC50 (Src [3]) read?
**A.** 230 nM
